The values that follow are results of earlier work, collected in paper PMC2817966 (Journal of chemical information and modeling, 2009).

In the case of `CC(Sc1nc(N)cc(Cl)n1)c1cc2ccoc2cn1` (single isomer, unassigned; (-)) [PNU142721, (-)-6-Chloro-2-[(1-furo[2,3-c]pyridin-5-ylethyl)thio]-4-pyrimidinamine], the “potency towards WT HIV-1” value in the series on WT HIV-1 was 1 nM. Besides, the “activity towards a Y181C variant” value in the series on Tyr181Cys variant is 1 µM.

Regarding `Cc1cc(C)cc(Oc2c(CSCc3ccco3)c(C)[nH]c(=O)c2I)c1` [Compound R221239], the IC50 is 2 nM with WT HIV-1 (read-out: IC50 against WT HIV) and 5 nM with Tyr181Cys variant (read-out: IC50 against Tyr181Cys variant).

The term IC50 denotes the concentration that inhibits the measured activity by half.
